Data taken from the supplement of paper PMC10883282.
± gives the standard deviation of the averaged measurements.

System: RD
Assay: relative viability vs DMSO control (72 h) (fraction); higher = more viable cells
How it was run: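 A 5 µM positive control and 0.1% DMSO vehicle ran alongside sarcoma cell lines seeded in 384-well plates to reach 80–90% confluence. Serially diluted compound, 2.5 µl from source plates of 10 mM to 0.0002 mM, was added after 24 h, and the plates were held 72 h at 37 °C, 5% CO2. Relative viability was worked out from ATPLite readings as percent growth averaged over up to triplicate wells. The values were rescaled so that 1 is full and 0 is none.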

SMILES	relative viability (0.00017 µM)	relative viability (0.00051 µM)	relative viability (0.00152 µM)	relative viability (0.00457 µM)	relative viability (0.01372 µM)	relative viability (0.04115 µM)	relative viability (0.1235 µM)	relative viability (0.3704 µM)	relative viability (1.111 µM)	relative viability (3.333 µM)	relative viability (10 µM)
COc1cc2nccc(Oc3ccc(NC(=O)Nc4cc(C)on4)c(Cl)c3)c2cc1OC [Tivozanib]	1.12 ± 0.07	1.12 ± 0.085	1.13 ± 0.009	1.13 ± 0.068	1.135 ± 0.011	1.14 ± 0.016	1.14 ± 0.05	1.18 ± 0.052	1.169 ± 0.0077	1.17 ± 0.018	0.814 ± 0.019
C[C@]1(O)C[C@@H](c2nc(-c3ccc4ccc(-c5ccccc5)nc4c3)c3c(N)nccn32)C1 [Linsitinib]	1.03 ± 0.04	1.09 ± 0.066	1.1 ± 0.047	1.06 ± 0.05	1.039 ± 0.0018	1.03 ± 0.035	0.875 ± 0.048	0.672 ± 0.0074	0.639 ± 0.028	0.633 ± 0.02	0.568 ± 0.0034
C=CC(=O)Nc1cccc(Oc2nc(Nc3ccc(N4CCN(C)CC4)cc3)nc3ccsc23)c1 [Olmutinib]	1.02 ± 0.051	1.04 ± 0.045	1.03 ± 0.046	1.04 ± 0.032	1.03 ± 0.068	1.03 ± 0.056	1.04 ± 0.051	1.07 ± 0.058	1.01 ± 0.051	0.892 ± 0.08	0.174 ± 0.025
O=C(Nc1cnn2ccc(N3CCC[C@@H]3c3cc(F)ccc3F)nc12)N1CC[C@H](O)C1 [Larotrectinib]	1.07 ± 0.035	1.092 ± 0.0046	1.09 ± 0.059	1.1 ± 0.05	1.11 ± 0.042	1.1 ± 0.11	1.13 ± 0.051	1.12 ± 0.073	1.13 ± 0.037	1.1 ± 0.068	1.09 ± 0.12
